Where “and” joins values, the source holds several entries; their conditions need not be identical. Equal entries are not always repeated.
Experiments:
[1] = tested on: Neotropical Brown Stink Bug (Euschistus heros, EUSCHE); assay: whole plant or invertebrate; format: in vivo
Protocol: X=No. of live nymphs on solvent check and Y=No. of live nymphs on treated bean segments. In Table B4 the “Expected % Control” was calculated using the method described in Colby S. R., Weeds, 1967, 15, 20-22. Bioassay 5: Neotropical Brown Stink Bug (Euschistus heros, EUSCHE) (“BSB”).
Stock solutions were prepared with Formula One as well as for each of the active ingredients individually. Test solutions were prepared from the stock solutions. Test solutions were prepared containing Formula One, the individual active ingredients, and mixtures of Formula One with each of the active ingredients. The test solution for Formula One was prepared by adding 500 μL of the stock solution to a 25 mL glass vial, then adding 500 μL of acetone, followed by the addition of 9 mL water with 0.025% Tween®) 20 to create a 0.04% (w/v) solution. The individual active ingredients were prepared by adding 500 μL of stock solution to a 25 mL glass vial, then adding 500 μL of acetone, followed by the addition of 9 mL water with 0.025% Tween®) 20 to create a 0.005% (w/v) solution. The test solutions containing mixtures of Formula One and the individual active ingredients were prepared by adding 500 μL of the active ingredient stock solution to a 25 mL glass vial, followed by 500 μL of the Formula One stock solution, then by the addition of 9 mL water with 0.025% Tween®) 20 to create a test solution containing 0.04% (w/v) Formula One and 0.005% (w/v) of the active ingredient. Each test solution was serially diluted to create desired doses of test solutions (0.01% (w/v), 0.0025% (w/v), 0.000625% (w/v), 0.000156% (w/v), and 0.000039% (w/v)). In test solutions containing mixtures of Formula One and the active ingredients, the active ingredients were diluted as described above, but the Concentration of Formula One was held constant (0.04% (w/v)).
The test solutions that were tested against BSB were similar to those described above for WTPB. Fresh green beans were cut into segments approximately 1.5 inches long. Four bean segments were added to each test solution and soaked for approximately 15 minutes. After soaking, a single bean fragment was removed and placed into a single well of a 32-well rearing tray (Frontier Agricultural Sciences™), on top of a round filter paper disc. A reference treatment (solvent check) was treated with the diluent only. Each treatment was replicated four times and the test treatments were held at approximately 26° C. and ambient relative humidity (RH) prior to grading. Bean segments were allowed to air dry for ˜30 minutes. Three BSB nymphs were added to and contained in each well with a clear perforated adhesive lid. The total number of living BSB nymphs was recorded 3 days after application. Scoring was based off the total number of living nymphs out of all four replicates. Percent control was measured using Abbott's correction formula (W. S. Abbott, J. Econ. Entomol. 18 (1925), pp. 265-267) as follows:
where X=No. of live nymphs on solvent check and Y=No. of live nymphs on treated bean segments. In Table B5 the “Expected % Control” was calculated using the method described in Colby S. R., Weeds, 1967, 15, 20-22. Bioassay 6: Beet Armyworm (Spodoptera exigua, LAPHEG) (BAW), and Diamondback Moth (Plutella xylostella, PLUTMA) (DBM).

[2] = tested on: Green Peach Aphid (Myzus persicae, MYZUPE); assay: Bioassay 1: Green Peach Aphid, foliar spray on infested cabbage seedlings, live aphids counted three days after treatment; format: in vivo
Protocol: Bioassay 1: Green Peach Aphid (Myzus persicae, MYZUPE) (“GPA”).
The stock solutions were prepared with Formula One as well as for each of the active ingredients individually. Test solutions were prepared from the stock solutions. Test solutions were prepared containing Formula One, the individual active ingredients, and mixtures of Formula One with each of the active ingredients. The test solutions for Formula One and the individual active ingredients were prepared by adding 750 microliters (μL) of stock solution to a 25 mL glass vial, then adding 750 μL of 1:1 acetone: methanol solvent, followed by the addition of 13.5 ml water with 0.025% Tween®) 20 to create a 0.0005% (weight/volume (w/v)) solution. The test solutions containing mixtures of Formula One and the individual active ingredients were prepared by adding 750 μL of the active ingredient stock solution to a 25 mL glass vial, followed by 750 μL of the Formula One stock solution, then by the addition of 13.5 mL water with 0.025% Tween®) 20 to create a test solution containing 0.0005% (w/v) Formula One and 0.0005% (w/v) of the active ingredient. Each test solution was serially diluted to create desired doses of test solutions (0.0005% (w/v), 0.000125% (w/v), 0.00003125% (w/v), 0.0000078% (w/v), 0.00000195% (w/v), and 0.0000005% (w/v)).
The test solutions were tested against GPA using the following procedure: Cabbage seedlings, grown in 3-inch pots with 2-3 small (3-5 centimeter (cm)) true leaves, were used as test substrate. The seedlings were infested with 20-50 GPA (wingless adult and nymph stages) one day prior to chemical application. Four pots with individual seedlings were used for each treatment. A hand-held aspirator-type sprayer was used for spraying a solution to both sides of […] leaves until runoff. Reference plants (solvent check) were sprayed with the diluent only (0.025% Tween®) 20 and 10% acetone:methanol (1:1) in water). Treated plants were held in a holding room for three days at approximately 25° C. and ambient relative humidity (RH about 20% to about 45%) prior to grading. Evaluation was conducted by counting the number of live aphids per plant under a microscope three days after treatment. Percent control was measured using Abbott's correction formula (W. S. Abbott, J. Econ. Entomol. 18 (1925), pp. 265-267) as follows:
where X=No. of live aphids on solvent check plants and Y=No. of live aphids on treated plants. In Table B1 the “Expected % Control” was calculated using the method described in Colby S. R., Weeds, 1967, 15, 20-22. Bioassay 2: Sweet Potato Whitefly (Bemisia tabaci, BEMITA) (“SPW”).

[3] = Euschistus heros, 72 h, AI alone 0.000156 % w/v, read-out: Average % Control AI
[4] = Euschistus heros, 72 h, AI alone 0.000625 % w/v

Q: Which results are given for `Cc1c(COC(=O)[C@@H]2[C@H](/C=C(\Cl)C(F)(F)F)C2(C)C)cccc1-c1ccccc1` (racemic) [Bifenthrin]?
A: pest or weed control at 0.000156 % strength [1, 3]: 30%; Average % Control AI ([2]; AI alone 0.78 (10^-5) % w/v): 52%

Q: `CCN(C(=O)CCS(C)(=O)=O)c1sc(-c2cccnc2)nc1Cl` [Formula F1, N-(4-chloro-2-(pyridin-3-yl)thiazol-5-yl)-N-ethyl-3-(methylsulfonyl)propanamide] was tested. Which “Average % Control F1” value ([1]; F1 alone 0.04 % w/v) did it give?
A: The value was 0%.

Q: What about the “Average % Control F1” value ([2]; F1 alone 0.05 (10^-5) % w/v) of the same compound?
A: Its value is 29%.

Q: And the “Average % Control F1” value ([2]; F1 alone 0.195 (10^-5) % w/v)?
A: The value was 13%.

Q: What about the “Average % Control F1” value ([2]; F1 alone 0.78 (10^-5) % w/v) of the same compound?
A: The value was 28%.

Q: What about the “Average % Control F1” value ([2]; F1 alone 3.125 (10^-5) % w/v) of the same compound?
A: The value was 30% and 35%.

Q: And the “Average % Control F1” value ([2]; F1 alone 12.5 (10^-5) % w/v)?
A: The value was 39%.

Q: How did the pest or weed control at 0.000625 % strength [1, 4] turn out when `O=[N+]([O-])NC1=NCCN1Cc1ccc(Cl)nc1` [Imidacloprid] was run?
A: The pest or weed control at 0.000625 % strength was 17%.

Q: Which results are given for `CON=CNC(=O)c1ccc(C2=NOC(c3cc(Cl)cc(Cl)c3)(C(F)(F)F)C2)cc1C` (stereo not drawn) [Fluxametamide]?
A: Average % Control AI ([1]; AI alone 0.000625 % w/v): 17%; Average % Control AI ([2]; AI alone 12.5 (10^-5) % w/v): 0%

Q: How did the pest or weed control at 0.000156 % strength [1, 3] turn out when `CN1COCN(Cc2cnc(Cl)s2)/C1=N\[N+](=O)[O-]` [Thiamethoxam] was run?
A: The pest or weed control at 0.000156 % strength was 17%.

Q: Abamectin was tested. Which “Average % Control AI” value ([1]; AI alone 0.000625 % w/v) did it give?
A: Its value is 17%.

Q: With `CC[S+]([O-])c1c(C#N)nn(-c2c(Cl)cc(C(F)(F)F)cc2Cl)c1N` (stereo not drawn) [Ethiprole] as the compound, how does the pest or weed control at 3.91e-05 % strength ([1]; Euschistus heros, 72 h, AI alone 0.0000391 % w/v) read?
A: The pest or weed control at 3.91e-05 % strength was 0%.

Q: What about the “Average % Control AI” value ([2]; AI alone 3.125 (10^-5) % w/v) of the same compound?
A: Its value is 0%.

Q: How did the “Average % Control AI” value ([1]; AI alone 0.000156 % w/v) turn out when Emamectin Benzoate was run?
A: Its value is 24%.

Q: And the “Average % Control AI” value ([2]; AI alone 3.125 (10^-5) % w/v)?
A: Its value is 21%.

Q: Which pest or weed control at 0.0025 % strength ([1]; Euschistus heros, 72 h, read-out: Average % Control AI) does the source give for `COP(=O)(NC(C)=O)SC` (stereo not drawn) [Acephate] here?
A: Its pest or weed control at 0.0025 % strength is 0%.

Q: Which results are given for `CC1(C)[C@H](C(=O)O[C@H](C#N)c2cccc(Oc3ccccc3)c2)[C@@H]1/C=C(\Cl)C(F)(F)F` (racemic) [Lambda Cyhalothrin]?
A: pest or weed control at 0.000625 % strength [1, 4]: 8%; Average % Control AI ([2]; AI alone 0.78 (10^-5) % w/v): 40%

Q: With `C/C(=N\C#N)N(C)Cc1ccc(Cl)nc1` [Acetamiprid] as the compound, how does the “Average % Control AI” value ([2]; AI alone 0.78 (10^-5) % w/v) read?
A: The value was 24%.

Reference: US20250338846A1, “COMPOSITIONS HAVING PESTICIDAL UTILITY AND PROCESSES RELATED THERETO” (CORTEVA AGRISCIENCE, LLC, priority 2022, published 2025)
